Earlier results on one compound are cited in article PMC5348030 (Nature chemical biology, 2016).

In the series the test system is HIV integrase.

`Cc1nnc(C(=O)NC(C)(C)c2nc(C(=O)NCc3ccc(F)cc3)c(O)c(=O)n2C)o1` [raltegravir]: the “residence time on its target” value is 4.8 min.
